Data on 1 compound can be found in patent publication US20160206592A1, “METHOD FOR TREATING AMYOTROPHIC LATERAL SCLEROSIS BY INHIBITION OF CXCR4/CXCL12 SIGNALING” (RAMOT AT TEL-AVIV UNIVERSITY LTD., priority 2013, published 2016).

Like-named read-outs stand apart in the source and are kept apart here.

Test [1] has as its system NSC-34 cells stably transfected with mutant SOD1. The note with it: 25 ug AMD3100, astrocytes from newborn SODG93A mice incubated 24 h, compared to other concentrations. The procedure: Primary astrocytes from 3 days old newborn SODG93A mice were incubated AMD3100 for 24 h. Media of treated astrocytes was then added to NSC-34 cells stably transfected with mutant SOD1.

Test [2] deals with activated microglia. The note with it: female SODG93A mice, 5 mg/kg s.c. twice a week from 50 days old, sacrificed at 110 days old. On the procedure:
50 days old female SODG93A mice were s.c injected with 5 mg/kg AMD3100 twice a week. On 110 days old mice were sacrificed and analyzed using western blot for inflammatory markers of activated microglia. FIG. 7A. is cd36 levels. FIG. 7B. is Iba-1 levels.
Loss of upper and lower MNs results in progressive muscle paralysis and ultimately death due to respiratory failure. Although initially thought to derive from the selective loss of MNs, the pathogenic concept of non-cell autonomous disease has come to the fore front for the contribution of glial cells in ALS, in particular microglia. […] Conversely, activated microglia contributes and enhances MN death by secreting neurotoxic factors, and impaired microglial function at the end-stage may instead accelerate disease progression. However, the nature of microglial-neuronal interactions that lead to MN degeneration remains elusive.

In test [3] the test system is ZO-1, claudin 5, Occludin. The note with it: female SODG93A mice, 5 mg/kg s.c. twice a week from 50 days old, sacrificed at 110 days old. On the procedure: FIGS. 9A-9C show Blood-CNS-Barrier markers levels following AMD3100 treatment. 50 days old female SODG93A mice were s.c injected with 5 mg/kg AMD3100 twice a week. On 110 days old mice were sacrificed and analyzed for B-CNS-B markers using western blot.
Endothelial cells play an important role in B-CNS-B function. B-CNS-B dysfunction is recognized to participate in neurodegenerative disorders. […] TJPs such as ZO-1, occludin and the claudin family exist in cerebral vascular endothelial cells, which are the most crucial factors modulating barrier integrity. […] The expression of TJPs has been reported to contribute to barrier function. ZO-1 and claudin-5 are the most important components for cell barrier integrity. Claudin-5 can greatly reduce dextran permeability and improve transendothelial electrical resistance and plays an essential role in the earliest stage of CNS angiogenesis. ZO-1 serves as a bridge between transmembrane proteins and skeleton proteins, and this interaction is important to the stability and function of endothelial barrier. […] All these three proteins are known to be reduced by 40%-60% in both animal models of ALS and humans, even prior to disease onset (Zhong et al., 2008).

The test system of test [4] is transgenic G93A mice. The note with it: G93A female mice, s.c. once and twice a week.
Excerpt: Six mice received AMD3100 once a week, eight mice received AMD3100 twice a week, and seven mice received PBS once a week.
For this purpose, the present inventors treated G93A female mice subcutaneously with either AMD3100 or PBS, starting at 70 days old. Six mice received AMD3100 once a week, eight mice received AMD3100 twice a week, and seven mice received PBS once a week.
For test [5], the system named is SOD1-G93A female and male mice.
Description: FIGS. 4A-4C are graphs showing survival (Kaplan-Meier curves; P-value=0.0001) of SOD1-G93A female and male mice subcutaneously treated with either 5 mg/kg AMD3100 or PBS, starting at 50 days old; N=29 (AMD3100), N=16 (PBS).
The mark [6] stands for this setting: females only, 5 mg/kg twice a week.
Setting [7] is: males and females together, 5 mg/kg s.c., starting at 50 days old.
[8] abbreviates: males only, 5 mg/kg twice a week.

`c1cc(CN2CCCNCCNCCCNCC2)ccc1CN1CCCNCCNCCCNCC1` [AMD3100, 1,1′-[1,4-Phenylenebis(methylene)]bis-1,4,8,11-tetraazacyclotetradecane]: in test [1], the “survival of motor neuron like cells” value is reported as “increased the survival”. In test [2], the Iba-1 levels entry is “significant reduction” and the cd36 levels entry was “significant reduction”. Further, in test [3], the Occludin levels entry is on record as “effective in restoring the expression”, the ZO-1 levels entry is reported as “effective in restoring the expression” and the “claudin 5 levels” value is “effective in restoring the expression”. In test [4], the “extension of survival compared with control (PBS) mice” value was “about 14 days”. In test [4] (starting at 70 days old), this compound had an age at death of roughly 170 days old. Moreover, in test [5] (setting [6]), the mean survival turned out to be 146 days, the median survival is 144 days and the “survival (versus PBS)” value stood at 14 days. Also, in test [5] (setting [7]), the mean survival was 144 days, the median survival was 143 days and the “survival according to Kaplan-Meier curve (versus PBS)” value turned out to be 12 days. Further, in test [5] (setting [8]), the mean survival is listed as 141 days, the median survival worked out at 139 days and the “survival (versus PBS)” value came to 8 days.
